Reference: PMC3472068, “Roles of the different components of magnesium chelatase in abscisic acid signal transduction” (Plant Molecular Biology, 2012)

Target: T1, CHLH (CHLH/ABAR) (Arabidopsis thaliana, UniProt Q9FNB0)
T1 construct: ORF in pFastBac HFT-B, Flag-tagged fusion, expressed in Sf9 insect cells; about 150 kDa; full length 1381 residues; amine-coupled on CM5 chip
T1 sequence (Q9FNB0 1-1381): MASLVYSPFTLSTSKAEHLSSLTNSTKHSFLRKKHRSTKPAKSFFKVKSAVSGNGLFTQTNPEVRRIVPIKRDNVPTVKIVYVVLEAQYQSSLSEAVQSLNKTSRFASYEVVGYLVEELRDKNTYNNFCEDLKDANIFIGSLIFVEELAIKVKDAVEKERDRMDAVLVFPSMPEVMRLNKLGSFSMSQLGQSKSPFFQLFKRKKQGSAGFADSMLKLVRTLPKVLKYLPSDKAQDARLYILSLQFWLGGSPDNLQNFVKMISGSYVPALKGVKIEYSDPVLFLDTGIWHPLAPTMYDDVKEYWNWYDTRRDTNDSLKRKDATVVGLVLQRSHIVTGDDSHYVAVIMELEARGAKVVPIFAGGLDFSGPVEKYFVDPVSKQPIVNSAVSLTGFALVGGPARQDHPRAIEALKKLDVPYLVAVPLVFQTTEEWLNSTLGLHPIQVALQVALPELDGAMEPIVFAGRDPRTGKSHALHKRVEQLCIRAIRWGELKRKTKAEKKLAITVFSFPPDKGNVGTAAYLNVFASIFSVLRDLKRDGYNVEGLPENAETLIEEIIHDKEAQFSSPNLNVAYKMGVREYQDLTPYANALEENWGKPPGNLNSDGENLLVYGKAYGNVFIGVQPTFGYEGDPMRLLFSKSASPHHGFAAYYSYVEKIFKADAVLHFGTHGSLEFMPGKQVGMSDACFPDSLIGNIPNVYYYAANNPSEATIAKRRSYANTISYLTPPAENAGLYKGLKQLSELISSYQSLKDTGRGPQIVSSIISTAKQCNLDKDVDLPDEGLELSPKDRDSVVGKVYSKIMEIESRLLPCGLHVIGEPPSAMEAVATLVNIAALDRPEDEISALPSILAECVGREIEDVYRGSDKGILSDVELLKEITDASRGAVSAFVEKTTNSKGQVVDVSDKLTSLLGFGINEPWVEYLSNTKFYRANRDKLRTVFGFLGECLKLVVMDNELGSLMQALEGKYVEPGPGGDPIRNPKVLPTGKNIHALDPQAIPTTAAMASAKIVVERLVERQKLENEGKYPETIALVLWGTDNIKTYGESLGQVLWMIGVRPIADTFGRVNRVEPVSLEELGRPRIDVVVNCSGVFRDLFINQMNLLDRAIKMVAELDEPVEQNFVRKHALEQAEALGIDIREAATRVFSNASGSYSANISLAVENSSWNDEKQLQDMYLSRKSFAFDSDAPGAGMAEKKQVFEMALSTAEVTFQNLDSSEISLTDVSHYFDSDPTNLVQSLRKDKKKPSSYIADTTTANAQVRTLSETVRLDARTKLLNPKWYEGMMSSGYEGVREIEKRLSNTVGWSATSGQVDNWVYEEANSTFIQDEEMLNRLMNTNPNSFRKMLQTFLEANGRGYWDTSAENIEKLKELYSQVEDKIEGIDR
Assay: SPR (Biacore T200, CM5 chip, protein immobilized by amine coupling), steady-state fit
Assay type: binding
Details: HBS-EP running buffer with EDTA, pH 7.4, 25 °C, 6-100 μM analyte; unreliable (authors attribute the low affinity to technical limits of SPR)

- Kd: 20 µM
SMILES: CC1=CC(=O)CC(C)(C)C1(O)/C=C/C(C)=C\C(=O)O (stereo in doubt) [(+)-ABA]
